{
  "source": "patent US7750145B2",
  "about": "“1-substituted-3-β-D-glucopyranosylated nitrogenous hetero-cyclic compounds and medicines containing the same” (Kissei Pharmaceutical Co., Ltd., priority 2004, dated 2010)",
  "data": [
    {"molecular_target": "T1, human SGLT1 (Homo sapiens, UniProt P13866)", "T1 construct": "expressed in transfected cells; host or cells: COS-7 cells, transient lipofection of pcDNA3.1(-) vector", "T1 sequence (P13866 1-664)": "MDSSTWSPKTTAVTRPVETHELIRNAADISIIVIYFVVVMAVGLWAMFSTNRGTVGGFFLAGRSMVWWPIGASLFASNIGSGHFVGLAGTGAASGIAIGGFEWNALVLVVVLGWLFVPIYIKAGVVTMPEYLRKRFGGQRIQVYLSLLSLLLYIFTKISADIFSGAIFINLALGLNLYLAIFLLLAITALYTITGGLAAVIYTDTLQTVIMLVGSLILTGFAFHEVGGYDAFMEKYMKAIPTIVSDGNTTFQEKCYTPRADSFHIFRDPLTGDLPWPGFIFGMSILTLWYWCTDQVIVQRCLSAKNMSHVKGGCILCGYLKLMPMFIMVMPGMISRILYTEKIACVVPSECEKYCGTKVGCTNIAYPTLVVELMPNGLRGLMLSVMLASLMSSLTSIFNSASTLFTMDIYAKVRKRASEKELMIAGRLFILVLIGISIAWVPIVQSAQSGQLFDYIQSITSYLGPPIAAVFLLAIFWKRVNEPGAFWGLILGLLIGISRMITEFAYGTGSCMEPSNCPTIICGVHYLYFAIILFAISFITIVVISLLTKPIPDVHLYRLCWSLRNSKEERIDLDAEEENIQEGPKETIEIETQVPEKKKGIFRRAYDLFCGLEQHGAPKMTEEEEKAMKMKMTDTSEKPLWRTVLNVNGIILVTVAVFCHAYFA", "experiment": "Inhibition of methyl-α-D-glucopyranoside uptake in COS-7 cells expressing human SGLT1", "assay_type": "cell-based", "settings": "14C α-MG uptake, 1 mM α-MG, transfected COS-7 cells, 1 hour at 37° C.; read-out: hSGLT1 IC50", "experimental": "(§1) Assay for Inhibitory Effects on Human SGLT Activity\n1) Cloning and Construction of the Vector Expressing Human SGLT1\n(§2) The cDNA library was prepared for PCR amplification by reverse transcription from total RNA derived from human small intestine (Ori gene) using oligo-dT as a primer. Using this cDNA library as a template, the DNA fragment coding 1 to 2005 bp of human SGLT1 (ACCESSION: M24847), which was reported by Hediger et al., was amplified by PCR method and inserted into the multi-cloning site of pcDNA3.1(−) (Invitrogen). The DNA sequence inserted was perfectly matched to the previously reported sequence.\n(§3) 3) Preparation of the Cells Expressing Human SGLT1 or SGLT2 […]\n(§4) A mixture of non-labeled (Sigma) and ^14C-labeled α-MG (Amersham Pharmacia Biotech) was added to the uptake buffer (pH 7.4; containing 140 mM sodium chloride, 2 mM potassium chloride, 1 mM calcium chloride, 1 mM magnesium chloride, 10 mM 2-[4-(2-hydroxyethyl)-1-piperazinyl]ethane sulfonic acid and 5 mM tris(hydroxymethyl)aminomethane) at the final concentration of 1 mM. […] Radioactivity was measured by means of micro-scintillation counter TopCount (Packard). One hundred % was set to the difference between the uptake in the control group and the basal uptake, and the uptake of methyl α-D-glucopyranoside at each drug concentration was calculated. […]", "units": {"IC50": "nM"}, "values": [
      {"smiles": "COc1ccc(Cn2cc([C@@H]3O[C@H](CO)[C@@H](O)[C@H](O)[C@H]3O)c3cccc(C)c32)cc1", "note": "[Example 6]", "IC50": 83}
    ]},
    {"system": "SD rats", "experiment": "Assay for the effect on urinary glucose excretion", "assay_type": "in vivo, rat", "settings": "overnight fasted male SD rats, oral 1 mg/kg, urine collected for 24 hours", "source_text": "Assay for the Effect on Urinary Glucose Excretion\nAs experimental animals, overnight fasted SD rats (CHARLES RIVER LABORATORIES JAPAN. Inc., Crj:CD(SD)IGS, male, 7-8 weeks of age, 180-300 g) were used. The test compound was suspended with 0.5% methylcellulose solution and the suspension was used for administration. On the day before drug administration, the rats were transferred in metabolic cages and fasted from the evening. Throughout the study, the rats were given water ad libitum. The test compound was orally administered at the dose of 1 mg/kg and urine collection was performed for 24 hours after the compound administration. The rats were fed ad libitum from 4 hours after the compound administration. The volume of urine collected was measured and a part of urine was used as a sample for glucose concentration measurement. The samples were diluted as appropriate and the glucose concentrations were measured with Glucose CII-Test WAKO (Wako Pure Chemical Industries, Ltd.) and the amount of urinary glucose excretion per 200 g of body weight was calculated.", "units": {"Amount of urinary excretion of glucose in 24 hours": "mg/200 g body weight"}, "values": [
      {"smiles": "COc1ccc(Cn2cc([C@@H]3O[C@H](CO)[C@@H](O)[C@H](O)[C@H]3O)c3cc(C)cc(F)c32)cc1", "note": "[Example 96]", "Amount of urinary excretion of glucose in 24 hours": 588},
      {"smiles": "COc1ccc(Cn2cc([C@@H]3O[C@H](CO)[C@@H](O)[C@H](O)[C@H]3O)c3cc(C)cc(F)c32)c(F)c1", "note": "[Example 97]", "Amount of urinary excretion of glucose in 24 hours": 507},
      {"smiles": "Cc1cc(F)c2c(c1)c([C@@H]1O[C@H](CO)[C@@H](O)[C@H](O)[C@H]1O)cn2Cc1ccc(CCO)cc1", "note": "[Example 99]", "Amount of urinary excretion of glucose in 24 hours": 47},
      {"smiles": "Cc1ccc(Cn2cc([C@@H]3O[C@H](CO)[C@@H](O)[C@H](O)[C@H]3O)c3cc(C)cc(Cl)c32)cc1", "note": "[Example 102]", "Amount of urinary excretion of glucose in 24 hours": 933},
      {"smiles": "Cc1cc(Cl)c2c(c1)c([C@@H]1O[C@H](CO)[C@@H](O)[C@H](O)[C@H]1O)cn2Cc1ccc(O)cc1", "note": "[Example 104]", "Amount of urinary excretion of glucose in 24 hours": 349},
      {"smiles": "COc1ccc(Cn2cc([C@@H]3O[C@H](CO)[C@@H](O)[C@H](O)[C@H]3O)c3cc(C)cc(Cl)c32)cc1", "note": "[Example 105]", "Amount of urinary excretion of glucose in 24 hours": 1693},
      {"smiles": "COc1ccc(Cn2cc([C@@H]3O[C@H](CO)[C@@H](O)[C@H](O)[C@H]3O)c3cc(C)cc(Cl)c32)c(F)c1", "note": "[Example 106]", "Amount of urinary excretion of glucose in 24 hours": 1910},
      {"smiles": "Cc1cc(Cl)c2c(c1)c([C@@H]1O[C@H](CO)[C@@H](O)[C@H](O)[C@H]1O)cn2Cc1ccc(OC(F)F)cc1", "note": "[Example 108]", "Amount of urinary excretion of glucose in 24 hours": 1229},
      {"smiles": "COc1ccc(Cn2cc([C@@H]3O[C@H](CO)[C@@H](O)[C@H](O)[C@H]3O)c3cc(C)cc(C)c32)cc1", "note": "[Example 114]", "Amount of urinary excretion of glucose in 24 hours": 520},
      {"smiles": "CCc1ccc(Cn2cc([C@@H]3O[C@H](CO)[C@@H](O)[C@H](O)[C@H]3O)c3c(C)ccc(F)c32)cc1", "note": "[Example 116]", "Amount of urinary excretion of glucose in 24 hours": 24},
      {"smiles": "COc1ccc(Cn2cc([C@@H]3O[C@H](CO)[C@@H](O)[C@H](O)[C@H]3O)c3c(C)ccc(F)c32)cc1", "note": "[Example 118]", "Amount of urinary excretion of glucose in 24 hours": 12},
      {"smiles": "COc1ccc(Cn2cc([C@@H]3O[C@H](CO)[C@@H](O)[C@H](O)[C@H]3O)c3c(C)ccc(Cl)c32)cc1", "note": "[Example 124]", "Amount of urinary excretion of glucose in 24 hours": 37},
      {"smiles": "COc1ccc(Cn2cc([C@@H]3O[C@H](CO)[C@@H](O)[C@H](O)[C@H]3O)c3c(C)ccc(Cl)c32)c(F)c1", "note": "[Example 125]", "Amount of urinary excretion of glucose in 24 hours": 50},
      {"smiles": "CCOc1ccc(Cn2cc([C@@H]3O[C@H](CO)[C@@H](O)[C@H](O)[C@H]3O)c3cccc(F)c32)cc1", "note": "[Example 144]", "Amount of urinary excretion of glucose in 24 hours": 251},
      {"smiles": "CC(C)Oc1ccc(Cn2cc([C@@H]3O[C@H](CO)[C@@H](O)[C@H](O)[C@H]3O)c3cccc(F)c32)cc1", "note": "[Example 145]", "Amount of urinary excretion of glucose in 24 hours": 11},
      {"smiles": "CCOc1ccc(Cn2cc([C@@H]3O[C@H](CO)[C@@H](O)[C@H](O)[C@H]3O)c3cccc(Cl)c32)cc1", "note": "[Example 146]", "Amount of urinary excretion of glucose in 24 hours": 733},
      {"smiles": "CC(C)Oc1ccc(Cn2cc([C@@H]3O[C@H](CO)[C@@H](O)[C@H](O)[C@H]3O)c3cccc(Cl)c32)cc1", "note": "[Example 147]", "Amount of urinary excretion of glucose in 24 hours": 295},
      {"smiles": "CCOc1ccc(Cn2cc([C@@H]3O[C@H](CO)[C@@H](O)[C@H](O)[C@H]3O)c3cc(C)cc(F)c32)cc1", "note": "[Example 156]", "Amount of urinary excretion of glucose in 24 hours": 784},
      {"smiles": "CCOc1ccc(Cn2cc([C@@H]3O[C@H](CO)[C@@H](O)[C@H](O)[C@H]3O)c3cc(C)cc(Cl)c32)cc1", "note": "[Example 158]", "Amount of urinary excretion of glucose in 24 hours": 1708}
    ]},
    {"molecular_target": "T2, human SGLT2 (Homo sapiens, UniProt P31639)", "T2 construct": "expressed in transfected cells; host or cells: COS-7 cells, transient lipofection of pcDNA3.1(-) vector", "T2 sequence (P31639 1-672)": "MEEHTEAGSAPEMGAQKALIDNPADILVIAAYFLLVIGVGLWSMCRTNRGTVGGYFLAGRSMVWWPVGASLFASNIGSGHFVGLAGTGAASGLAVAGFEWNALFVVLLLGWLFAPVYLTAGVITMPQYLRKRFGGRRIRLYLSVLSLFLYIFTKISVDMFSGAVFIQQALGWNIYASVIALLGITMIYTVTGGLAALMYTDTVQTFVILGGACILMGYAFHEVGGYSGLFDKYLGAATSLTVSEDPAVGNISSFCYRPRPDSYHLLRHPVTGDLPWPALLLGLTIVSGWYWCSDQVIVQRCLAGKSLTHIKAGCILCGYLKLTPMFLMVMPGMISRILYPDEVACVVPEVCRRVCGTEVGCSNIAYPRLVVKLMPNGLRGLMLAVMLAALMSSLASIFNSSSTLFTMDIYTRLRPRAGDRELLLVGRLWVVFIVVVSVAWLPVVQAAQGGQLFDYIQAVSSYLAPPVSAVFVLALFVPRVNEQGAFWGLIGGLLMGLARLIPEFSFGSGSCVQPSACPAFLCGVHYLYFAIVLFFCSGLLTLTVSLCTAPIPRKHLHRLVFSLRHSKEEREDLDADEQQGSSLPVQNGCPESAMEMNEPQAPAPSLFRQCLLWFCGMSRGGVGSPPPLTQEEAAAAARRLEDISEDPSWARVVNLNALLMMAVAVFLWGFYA", "experiment": "Inhibition of methyl-α-D-glucopyranoside uptake in COS-7 cells expressing human SGLT2", "assay_type": "cell-based", "settings": "14C α-MG uptake, 1 mM α-MG, transfected COS-7 cells, 1 hour at 37° C.; read-out: hSGLT2 IC50", "experimental": "as §1\n2) Cloning and Construction of the Vector Expressing Human SGLT2\nas §2, with “human kidney” for “human small intestine”, “coding 2” for “coding 1”, “to 2039” for “to 2005”, “human SGLT2” for “human SGLT1”, “(ACCESSION: M95549, M95299),” for “(ACCESSION: M24847),”, “by R. G. Wells” for “by Hediger”\nas §3, §4", "units": {"IC50": "nM"}, "values": [
      {"smiles": "COc1ccc(Cn2cc([C@@H]3O[C@H](CO)[C@@H](O)[C@H](O)[C@H]3O)c3cc(C)ccc32)cc1", "note": "[Example 8]", "IC50": 6}
    ]}
  ]
}
